Target: T1, Ornithine decarboxylase (Homo sapiens, UniProt P11926)
T1 sequence (P11926 whole entry): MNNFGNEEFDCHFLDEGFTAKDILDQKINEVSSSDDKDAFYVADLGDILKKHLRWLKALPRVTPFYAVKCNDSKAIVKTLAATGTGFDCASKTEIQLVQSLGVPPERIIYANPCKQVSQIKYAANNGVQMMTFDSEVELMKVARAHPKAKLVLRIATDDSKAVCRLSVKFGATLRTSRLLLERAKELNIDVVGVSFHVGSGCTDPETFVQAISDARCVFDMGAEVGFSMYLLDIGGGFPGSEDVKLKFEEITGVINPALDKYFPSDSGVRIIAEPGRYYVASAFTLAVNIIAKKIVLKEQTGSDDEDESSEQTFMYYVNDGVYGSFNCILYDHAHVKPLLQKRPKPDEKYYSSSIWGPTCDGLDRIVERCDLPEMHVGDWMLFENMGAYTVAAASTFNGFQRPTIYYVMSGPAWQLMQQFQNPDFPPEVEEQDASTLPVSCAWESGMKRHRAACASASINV
Test: Inhibition of TPA-induced ornithine decarboxylase expressed in T24 cells

IC50 [µM]	Structure (SMILES)
5.05	C/C(=C/C=C/[C@H](C)[C@H](O)[C@@H](C)[C@@H](O)[C@@H](C)[C@@H]1O[C@@]2(C)CC[C@@H](O2)[C@H]1C)C(N)=O [SALINIKETAL A]
18.9	C[C@H]([C@H](O)[C@H](C)[C@@H](O)[C@@H](C)/C=C/C=C(/CO)C(N)=O)[C@@H]1O[C@@]2(C)CC[C@@H](O2)[C@H]1C [SALINIKETAL B]
